From PMC6650409, “Modeling the binding of diverse ligands within the Ah receptor ligand binding domain” (Scientific Reports, 2019)
Substitutions are numbered along the chain they refer to. Read-outs that look alike come from different tables or passages of the source.

Tests used:
[1] = molecular target: T1, P291L AhR (Mus musculus, UniProt P30561, P291L); assay: [3H]TCDD competitive ligand binding, P291L mutant AhR; settings: for change of relative binding affinity versus wild-type AhR: P291L substitution, in words
T1 construct: made in house; host or cells: in vitro, Promega TNT Quick rabbit reticulocyte lysate
T1 sequence (P30561 10-848 P291L): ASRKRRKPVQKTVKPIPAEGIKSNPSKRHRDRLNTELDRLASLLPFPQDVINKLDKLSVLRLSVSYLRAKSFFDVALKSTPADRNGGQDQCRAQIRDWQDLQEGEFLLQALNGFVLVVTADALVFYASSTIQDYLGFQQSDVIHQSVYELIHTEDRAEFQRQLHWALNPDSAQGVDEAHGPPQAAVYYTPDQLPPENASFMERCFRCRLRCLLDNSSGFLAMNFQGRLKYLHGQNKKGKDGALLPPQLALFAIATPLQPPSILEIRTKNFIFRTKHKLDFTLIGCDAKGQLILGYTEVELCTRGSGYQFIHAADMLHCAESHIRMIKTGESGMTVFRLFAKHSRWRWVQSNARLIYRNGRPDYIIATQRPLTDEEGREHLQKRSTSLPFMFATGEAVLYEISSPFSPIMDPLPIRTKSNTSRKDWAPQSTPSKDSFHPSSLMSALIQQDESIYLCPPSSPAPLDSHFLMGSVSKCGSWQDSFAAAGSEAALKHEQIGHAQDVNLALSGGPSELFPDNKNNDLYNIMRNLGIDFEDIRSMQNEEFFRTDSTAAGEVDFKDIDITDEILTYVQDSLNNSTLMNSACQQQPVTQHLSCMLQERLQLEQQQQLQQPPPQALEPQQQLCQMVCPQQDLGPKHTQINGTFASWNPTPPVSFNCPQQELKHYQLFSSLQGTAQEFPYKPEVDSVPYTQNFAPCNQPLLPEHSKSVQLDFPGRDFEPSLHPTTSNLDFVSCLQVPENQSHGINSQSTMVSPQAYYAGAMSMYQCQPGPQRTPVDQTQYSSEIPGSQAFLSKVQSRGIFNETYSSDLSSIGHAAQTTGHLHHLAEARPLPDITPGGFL
Method: The mouse AhR (mAhR) and ARNT (mARNT) expression plasmids, mβAhR/pcDNA3 and mβArnt/pcDNA3, have been previously described. Point mutations of mβAhR/pcDNA3 were carried out using the QuikChange Lightning Mutagenesis Kit (Agilent Technologies) and all constructs were verified by sequencing.
[^3H]TCDD specific binding to wild-type or mutant mAhRs synthesized in vitro using the Promega TNT Quick coupled transcription/translation rabbit reticulocyte lysate kit (Madison, WI) was carried out as previously described. [^3H]TCDD specific binding was determined by subtracting the amount of [^3H]TCDD bound to unprogrammed lysate (nonspecific binding) from the total amount of [^3H]TCDD binding to lysate containing in vitro expressed AhR. The amount of [^3H]TCDD specific binding remaining in the presence of the indicated competitor chemical was expressed as a percent of the total [^3H]TCDD specific binding. The relative binding affinity (IC50) of each chemical was determined from concentration-dependent competitive inhibition curves obtained using [^3H]TCDD and increasing concentrations of each test chemical and the mean IC50 value was determined using three-parameter non-linear regression.

[2] = molecular target: T2, L302A mutant AhR (Mus musculus, UniProt P30561, L302A); assay: AhR DNA binding (gel retardation) assay, L302A mutant AhR; format: biochemical; settings: L302A mutation; single maximal ligand concentration; in words
T2 construct: made in house; host or cells: in vitro transcription/translation (rabbit reticulocyte lysate)
T2 sequence (P30561 10-848 L302A): T1 sequence (P30561 10-848 P291L) with L282P, L293A
Method: (§1) Wild-type and mutant mAhRs and mARNT were synthesized in vitro in the presence of unlabeled L-methionine, the resulting mAhRs and mARNT translation mixtures and MEDGK (25 mM MOPS (3-(N-morpholino)propanesulfonic acid; pH 7.5), 1 mM EDTA, 1 mM dithiothreitol, 10% (v/v) glycerol, 150 mM KCl) were mixed in a 1:1:8 (v/v/v) ratio and incubated with DMSO (1% final concentration) or the indicated concentration of TCDD or test chemical for 2 hours at room temperature. An aliquot of each incubation was mixed with [^32P]-labeled double-stranded oligonucleotide containing the mouse AhR DNA binding site DRE3 (a dioxin responsive element from the upstream region of the murine Cyp1a1 gene[71]) and protein-DNA complexes resolved by gel retardation analysis as previously described in detail. Gels were visualized using a FLA9000 Fujifilm Imager and protein-DNA complexes quantitated with Fujifilm MultiGauge software. For potency measurements, reactions were incubated with increasing concentrations of the test chemical and the chemical concentration producing half maximal AhR:ARNT:DRE complex formation (EC50) determined.

[3] = molecular target: T3, L309A mutant AhR (Mus musculus, UniProt P30561, L309A); assay: AhR DNA binding (gel retardation) assay, L309A mutant AhR; format: biochemical; settings: L309A substitution; relative to wt mAhR activated by TCDD; single maximal ligand concentration
T3 construct: made in house; host or cells: in vitro transcription/translation (rabbit reticulocyte lysate)
Method: as §1

[4] = Table S6, AhR mutant P291L, read-out: IC50

T3 sequence (P30561 10-848 L309A): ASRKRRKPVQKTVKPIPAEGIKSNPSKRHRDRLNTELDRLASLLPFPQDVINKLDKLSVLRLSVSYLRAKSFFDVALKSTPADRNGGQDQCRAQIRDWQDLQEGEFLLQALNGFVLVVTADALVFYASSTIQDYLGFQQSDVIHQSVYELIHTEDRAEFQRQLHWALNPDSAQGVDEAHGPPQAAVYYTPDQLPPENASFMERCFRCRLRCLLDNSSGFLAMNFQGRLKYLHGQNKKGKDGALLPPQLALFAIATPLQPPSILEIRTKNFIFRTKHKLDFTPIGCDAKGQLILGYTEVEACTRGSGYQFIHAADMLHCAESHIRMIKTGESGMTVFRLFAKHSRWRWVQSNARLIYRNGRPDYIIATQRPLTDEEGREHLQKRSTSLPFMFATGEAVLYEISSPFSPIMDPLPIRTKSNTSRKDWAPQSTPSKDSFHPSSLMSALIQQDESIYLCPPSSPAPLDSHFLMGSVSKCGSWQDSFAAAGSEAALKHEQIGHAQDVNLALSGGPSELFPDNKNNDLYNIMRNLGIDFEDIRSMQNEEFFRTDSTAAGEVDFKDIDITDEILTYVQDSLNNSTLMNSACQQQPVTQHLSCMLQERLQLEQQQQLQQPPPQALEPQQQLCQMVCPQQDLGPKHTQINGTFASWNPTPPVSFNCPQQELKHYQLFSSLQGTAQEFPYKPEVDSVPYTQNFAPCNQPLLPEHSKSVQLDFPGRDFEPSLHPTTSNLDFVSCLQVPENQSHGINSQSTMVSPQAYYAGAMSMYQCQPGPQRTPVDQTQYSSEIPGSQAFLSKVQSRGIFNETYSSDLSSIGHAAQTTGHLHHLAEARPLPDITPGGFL
T3 sequence (P53762 whole entry partner): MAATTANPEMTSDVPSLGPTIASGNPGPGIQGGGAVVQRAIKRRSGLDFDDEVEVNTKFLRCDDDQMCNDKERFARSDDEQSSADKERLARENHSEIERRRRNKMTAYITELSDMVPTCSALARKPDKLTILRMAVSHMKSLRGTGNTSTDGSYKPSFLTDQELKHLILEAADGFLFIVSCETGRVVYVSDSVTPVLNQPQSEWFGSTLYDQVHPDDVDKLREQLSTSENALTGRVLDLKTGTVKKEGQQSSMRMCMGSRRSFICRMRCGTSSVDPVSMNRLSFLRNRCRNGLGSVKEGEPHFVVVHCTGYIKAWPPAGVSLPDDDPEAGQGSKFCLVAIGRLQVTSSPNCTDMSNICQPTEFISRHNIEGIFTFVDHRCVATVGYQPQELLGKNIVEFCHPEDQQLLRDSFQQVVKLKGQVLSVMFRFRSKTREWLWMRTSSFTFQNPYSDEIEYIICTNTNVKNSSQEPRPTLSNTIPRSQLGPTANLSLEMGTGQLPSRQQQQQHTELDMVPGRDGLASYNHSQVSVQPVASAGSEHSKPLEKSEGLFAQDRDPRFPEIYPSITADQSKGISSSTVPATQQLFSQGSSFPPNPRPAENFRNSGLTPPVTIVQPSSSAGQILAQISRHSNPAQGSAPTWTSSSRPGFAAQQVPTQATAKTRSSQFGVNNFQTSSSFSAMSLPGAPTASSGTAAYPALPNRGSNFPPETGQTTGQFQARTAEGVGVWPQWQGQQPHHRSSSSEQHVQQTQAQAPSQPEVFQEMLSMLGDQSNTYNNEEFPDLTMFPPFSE

SMILES	change of relative binding affinity versus wild-type AhR [1]	IC50 [1, 4] [nM]	ligand-stimulated AhR DNA binding [2]	ligand-induced AhR DNA binding [3]	IC50 ([1]; P291L AhR, read-out: relative affinity (IC50)) [nM]
c1ccc2c(c1)cc1ccc3cccc4ccc2c1c34 [BaP, Benzo(a)pyrene]	not statistically significant	604	eliminated or greatly reduced	little to no	–
Clc1cc2c(cc1Cl)Oc1cc(Cl)c(Cl)cc1O2 [TCDD, 2,3,7,8-tetrachlorodibenzo-p-dioxin]	–	–	eliminated or greatly reduced	less than 25%	–
Clc1cc2oc3cc(Cl)c(Cl)cc3c2cc1Cl [TCDF, 2,3,7,8-tetrachlorodibenzofuran]	dramatically enhanced	0.0435	eliminated or greatly reduced	little to no	0.04
